ChEMBL document CHEMBL1150981, “Synthesis of new maleimide derivatives of daunorubicin and biological activity of acid labile transferrin conjugates” (Bioorg Med Chem Lett, 1997)
Activity calls are given as the source filed them. The calls are words filed in the database; no cut-off is given here.

Tests used:
MEXF989 [1] = assay: Tested for its inhibitory activity against human melanoma cells (MEFX 989) using a clonogenic assay at 0.01-1.0 uM; assay type: functional; conditions: MEXF 989
LXFL 529/11 [2] = assay: Tested for its inhibitory activity against xenograft (LXFL 529/11, lung, large cell) using a clonogenic assay; assay type: functional, Homo sapiens
[3] = Tested for the half life period at pH 5.0; assay type: ADME
MEXF989 [4] = assay: Tested for its inhibitory activity against human melanoma cells ([…]) using a clonogenic assay at 0.01-1.0 uM; […]; assay type: functional, cell-based
LXFL 529/11 [5] = assay: Tested for its inhibitory activity against xenograft (LXFL 529/11, lung, large cell) using a clonogenic assay at 0.01-1.0 uM; No activity; assay type: functional, cell-based; conditions: Homo sapiens

COc1cccc2c1C(=O)c1c(O)c3c(c(O)c1C2=O)C[C@@](O)(C(C)=O)C[C@@H]3O[C@H]1C[C@H](N)[C@H](O)[C@H](C)O1 [DAUNORUBICIN]
IC70 (MEXF989 [1]): 260 nM | IC90 (LXFL 529/11 [2]): 30 nM

COc1cccc2c1C(=O)c1c(O)c3c(c(O)c1C2=O)C[C@@](O)(/C(C)=N/NC(=O)c1ccc(CN2C(=O)C=CC2=O)cc1)C[C@@H]3OC1CC(N)C(O)C(C)O1 (stereo not given in full)
half-life [3]: 30 h | IC70 (MEXF989 [1]): 22 nM | IC90 (LXFL 529/11 [2]): <10 nM

COc1cccc2c1C(=O)c1c(O)c3c(c(O)c1C2=O)C[C@@](O)(C(C)=O)C[C@@H]3OC1CC(NC(=O)c2cccc(N3C(=O)C=CC3=O)c2)C(O)C(C)O1 (stereo not given in full)
Activity (MEXF989 [4]): inactive | Activity (LXFL 529/11 [5]): inactive

COc1cccc2c1C(=O)c1c(O)c3c(c(O)c1C2=O)C[C@@](O)(/C(C)=N/NC(=O)c1cccc(N2C(=O)C=CC2=O)c1)C[C@@H]3OC1CC(N)C(O)C(C)O1 (stereo not given in full)
half-life [3]: 20 h | IC70 (MEXF989 [1]): 390 nM | IC90 (LXFL 529/11 [2]): <10 nM
